Measured values taken from patent US10583154B2, “Multi-dose compositions containing an antimicrobial polyamide or octenidine preservative” (priority 2016, dated 2020).

Columns and labels:
[1] = in vivo, iv
Aspergillus niger = details: cited from earlier work
Candida albicans = details: cited from earlier work
Pseudomonas aeruginosa = details: cited from earlier work
Staphylococcus aureus = details: cited from earlier work
E. coli = details: cited from earlier work

With “4,4′-trimethylene dipiperidine bispropanoic acid-co-1,3-diamino propane” the maximum tolerated dose [1] was ~40 mg/kg.
For `C[CH2][Hg][S]c1ccccc1C(=O)[O-].[Na+]` [thimerosal], the “Minimum Inhibitory Concentration (MIC)” value (Aspergillus niger) is listed as 128 µg/mL, the “Minimum Inhibitory Concentration (MIC)” value (Candida albicans) is listed as 32 µg/mL and the “Minimum Inhibitory Concentration (MIC)” value (Pseudomonas aeruginosa) is listed as 4 to 8 µg/mL. For the same molecule, the “Minimum Inhibitory Concentration (MIC)” value (Staphylococcus aureus) was 0.2 µg/mL and the “Minimum Inhibitory Concentration (MIC)” value (E. coli) was 4 to 8 µg/mL.
